# Target: T1, MAGL (recombinant wild-type) (Homo sapiens, UniProt Q99685)
# T1 sequence (Q99685 1-303): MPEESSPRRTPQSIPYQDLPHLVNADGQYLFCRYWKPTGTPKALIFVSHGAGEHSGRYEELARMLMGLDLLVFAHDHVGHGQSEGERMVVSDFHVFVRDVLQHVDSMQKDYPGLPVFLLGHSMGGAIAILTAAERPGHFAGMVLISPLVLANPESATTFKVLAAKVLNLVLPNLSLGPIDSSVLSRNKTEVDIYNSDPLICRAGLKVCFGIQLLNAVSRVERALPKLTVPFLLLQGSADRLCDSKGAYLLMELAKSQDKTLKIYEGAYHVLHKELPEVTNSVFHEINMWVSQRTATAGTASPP
# Test: 4-NPA assay: MAGL inhibitory activity by hydrolysis of 4-nitrophenylacetate, absorbance at 405 nm
# Format: biochemical
# Settings: 4-NPA assay (values without footnote [a])
# Experimental: Compounds were profiled for MAGL inhibitory activity by measuring the enzymatic activity of MAGL by following the hydrolysis of 4-nitorphenylacetate resulting in 4-nitrophenol, which absorbs at 405-412 nm (G. G. Muccioli, G. Labar, D M. Lambert, Chem. Bio. Chem. 2008, 9, 2704-2710). This assay is hereinafter abbreviated “4-NPA assay”.
# The 4-NPA assay was carried out in 384 well assay plates (black with clear bottom, non-binding surface treated, Corning Ref. 3655) in a total volume of 40 μL. Compound dilutions were made in 100% DMSO (VWR Chemicals 23500.297) in a polypropylene plate in 3-fold dilution steps to give a final concentration range in the assay from 25 μM to 1.7 nM. 1 μL compound dilutions (100% DMSO) were added to 19 μL MAGL (recombinant wild-type) in assay buffer (50 mM TRIS (GIBCO, 15567-027), 1 mM EDTA (Fluka, 03690-100 ml)). The plate was shaked for 1 min at 2000 rpm (Variomag Teleshake) and then incubated for 15 min at RT. To start the reaction, 20 μL 4-Nitrophenlyacetate (Sigma N-8130) in assay buffer with 6% EtOH was added. The final concentrations in the assay were 1 nM MAGL and 300 μM 4-Nitrophenylacetate. After shaking (1 min, 2000 rpm) and 5 min incubation at RT, the absorbance at 405 nm was measured for a first time (Molecular Devices, SpectraMax Paradigm). A second measurement was then done after incubation for 80 min at RT. From the two measurements, the slope was calculated by substracting the first from the second measurement.
row,Structure (SMILES),IC50 [µM]
1,"COc1cc(C(=O)N2CCC(C(c3ccccc3)c3ccccc3)CC2)cc2c1CCC(=O)N2 [Example 101, 7-(4-Benzhydrylpiperidine-1-carbonyl)-5-methoxy-3,4-dihydro-1H-quinolin-2-one]",0.0027
2,"COc1ccc(C(c2ccc(F)cc2)C2CCN(C(=O)c3ccc4c(c3)NC(=O)CO4)CC2)cc1OC (single isomer, unassigned) [Example 105, 6-[4-[(R or S)-(3,4-Dimethoxyphenyl)-(4-fluorophenyl)methyl]piperidine-1-carbonyl]-4H-1,4-benzoxazin-3-one]",0.0008
3,"O=C1COc2ccc(C(=O)N3CCN(c4cc(C(F)(F)F)ccn4)CC3)cc2N1 [Example 88, 6-[4-[4-(trifluoromethyl)-2-pyridyl]piperazine-1-carbonyl]-4H-1,4-benzoxazin-3-one]",1.48
4,"O=C1COc2ccc(C(=O)N3CCC(C(c4ccccc4)c4ccc(F)nc4)CC3)cc2N1 (single isomer, unassigned) [Example 103, 6-[4-[(R or S)-(6-Fluoro-3-pyridyl)-phenyl-methyl]piperidine-1-carbonyl]-4H-1,4-benzoxazin-3-one]",0.0022
5,"Cn1nc(C2CCN(C(=O)c3ccc4c(c3)NC(=O)CO4)CC2)c2ccc(Cl)cc21 [Example 39, 6-[4-(6-chloro-1-methylindazol-3-yl)piperidine-1-carbonyl]-4H-1,4-benzoxazin-3-one]",0.084
6,"O=C1COc2ccc(C(=O)N3CCC([C@@H](c4ccc(F)cc4)c4cccc(OCCOCCF)c4)CC3)cc2N1 (single isomer, unassigned) [Example 95, 6-[4-[(R or S)-[3-[2-(2-fluoroethoxy)ethoxy]phenyl]-(4-fluorophenyl)methyl]piperidine-1-carbonyl]-4H-1,4-benzoxazin-3-one]",0.0014
7,"O=C1COc2ccc(C(=O)N3CCC(c4noc5cc(F)ccc45)CC3)cc2N1 [Example 51, 6-[4-(6-fluoro-1,2-benzoxazol-3-yl)piperidine-1-carbonyl]-4H-1,4-benzoxazin-3-one]",0.37
8,"COc1ccc(C(c2ccccc2)C2CCN(C(=O)c3ccc4c(c3)NC(=O)CO4)CC2)cc1 (centres unmarked) [Example 58, 6-[4-[(4-methoxyphenyl)-phenyl-methyl]piperidine-1-carbonyl]-4H-1,4-benzoxazin-3-one]",0.0008
9,"O=C1COc2ccc(C(=O)N3CCC(c4cn(Cc5cccc(Cl)c5)c5ccccc45)CC3)cc2N1 [Example 35, 6-[4-[l-[(3-chlorophenyl)methyl]indol-3-yl]piperidine-1-carbonyl]-4H-1,4-benzoxazin-3-one]",0.037
10,"COc1ccc(C(c2cccnc2)C2CCN(C(=O)c3ccc4c(c3)NC(=O)CO4)CC2)cc1OC (single isomer, unassigned) [Example 123, 6-[4-[(S or R)-(3,4-Dimethoxyphenyl)-(3-pyridyl)methyl]piperidine-1-carbonyl]-4H-1,4-benzoxazin-3-one]",0.0087
11,"O=C1COc2ccc(C(=O)N3CCC(c4cn(C5CC5)c5cc(Cl)ccc45)CC3)cc2N1 [Example 34, 6-[4-(6-chloro-1-cyclopropylindol-3-yl)piperidine-1-carbonyl]-4H-1,4-benzoxazin-3-one]",0.036
12,"COc1ccc2[nH]cc(C3CCN(C(=O)c4ccc5c(c4)NC(=O)CO5)CC3)c2c1 [Example 24, 6-[4-(5-methoxy-1H-indol-3-yl)piperidine-1-carbonyl]-4H-1,4-benzoxazin-3-one]",0.02
13,"O=C1COc2ccc(C(=O)N3CCC(c4nn(CCO)c5cc(F)ccc45)CC3)cc2N1 [Example 37, 6-[4-[6-fluoro-1-(2-hydroxyethyl)indazol-3-yl]piperidine-1-carbonyl]-4H-1,4-benzoxazin-3-one]",0.35
14,"O=C1COc2ccc(C(=O)N3CCN(c4ccc(Cl)c(C(F)(F)F)c4)CC3)cc2N1 [Example 85, 6-[4-[4-chloro-3-(trifluoromethyl)phenyl]piperazine-1-carbonyl]-4H-1,4-benzoxazin-3-one]",0.497

# Reference: patent US11420961B2, “Heterocyclic compounds” (Hoffmann-La Roche Inc., priority 2017, dated 2022)
